Experimental data reported in patent publication US20250235484A1, “METHODS FOR MAKING EXTRACELLULAR VESICLES, AND COMPOSITIONS AND METHODS OF USE THEREOF” (EVIA LIFE SCIENCES INC., priority 2021, published 2025).
Entries after “also recorded” stand apart in the source; their conditions may differ.

Tests used:
[1] = test system: Human primary keratinocytes; test: Extracellular vesicle secretion by cultured keratinocytes, Nanosight analysis of culture supernatant; type: cell-based; conditions: compared with normal KC-EVs / keratinocytes without inhibitors
Procedure: (§1) Human primary keratinocytes were cultured in EpiLife™ medium with or without Y or Y+A supplementation according to the schedule below, and analyzed for extracellular vesicle secretion. 10 μM Y-27632 (Wako) and 0.5 μM A-83-01 (Wako) was used. Collection media was serum-free EpiLife™ medium without inhibitors. Thus, depending on the experiment, or stage of the experiment, human epidermal keratinocytes were cultured in serum free media such as EpiLife™ Medium, without or without small molecule inhibitor(s), namely, 10 μM Y-27632 (Wako) alone, or 10 μM Y-27632 plus 0.5 μM A-83-01 (Wako).

[2] = test system: Human primary keratinocytes; test: Long-term culture of keratinocytes: proliferation, morphology, cell condition; type: cell-based
Procedure: as §1, with “(Wako). [table] Long-term culture of keratinocytes was carried out by adding low molecular weight compounds Y and Y+A.” for “(Wako).”

CC(N)[C@H]1CC[C@H](C(=O)Nc2ccncc2)CC1 (mixture of isomers) [Y, (+/−)-trans-N-(4-Pyridyl)-4-(1-aminoethyl)-cyclohexanecarboxamide]
amount of EVs secreted [1]: increased; also recorded: larger number | cell proliferation ([2]; compared with culturing normal cells without Y, 10 μM Y-27632): increased; also recorded: enhanced | cell growth, morphology and cell condition ([2]; long-term culture, micrographs): good cell growth, and good morphology; also recorded: cell morphology was the best
